Paper PMC2678132, “Solution structure of the parvulin-type PPIase domain of Staphylococcus aureus PrsA – Implications for the catalytic mechanism of parvulins” (BMC Structural Biology, 2009)

Biological target: T1, S. aureus PrsA-PPIase (Staphylococcus aureus, UniProt P60747)
T1 construct: parvulin-type PPIase domain, residues 140-245, GST fusion (pGEX-2T) from E. coli BL21, GST cleaved off by protease; 15N- or 13C/15N-labelled for NMR
Assay: NMR titration
Format: binding
Settings: S1-H1 loop; data not shown

T1 sequence (P60747 140-245): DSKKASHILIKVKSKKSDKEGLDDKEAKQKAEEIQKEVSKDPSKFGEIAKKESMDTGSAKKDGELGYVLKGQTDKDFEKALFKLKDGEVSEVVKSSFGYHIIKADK

## O=S(=O)(O)O [sodium sulphate]
  NMR titration: Binding of multivalent anions to the S1-H1 loop of PrsA-PPIase was also confirmed by NMR titrations
